According to publication PMC11111408, “Concurrent inhibition of oncogenic and wild-type RAS-GTP for cancer therapy” (Nature, 2024):
Where “and” joins values, the source holds several entries; their conditions need not be identical. Identical values can stand only once.

Experiments:
KRAS^G12R = KRAS^G12R (Homo sapiens, UniProt P01116+P62937, G12R); assay: RAS binding affinity of compound-bound CYPA (Kd2), SPR; set-up: made in house; host or cells: BL21(DE3) Escherichia coli; conditions: steady state SPR, (95% CI)
[1] = system: KRAS^G12X PDAC, CRC and NSCLC xenograft models; assay: Panel of 15 KRAS^G12X CDX and PDX xenograft models; assay type: in vivo, mouse; conditions: for % Tumor Volume Change: 10 mg/kg
Method: Xenograft studies were conducted at GenenDesign, Pharmaron, Wuxi AppTec, the laboratory of P. Lito, and the laboratory of C. Ambrogio. […] All procedures related to animal handling, care and treatment were conducted in compliance with all applicable regulations and guidelines of the relevant Institutional Animal Care and Use Committee (IACUC). […] Experimental details are supplied in the Supplementary Methods.

KRAS^G12V [2] = biological target: T1, KRAS^G12V (Homo sapiens, UniProt P01116+P62937, G12V); assay: Cellular RAS–RAF (CRAF RBD) disruption, nano-BRET in U2OS cells; assay type: cell-based; set-up: expressed in transfected cells; host or cells: U2OS PPIA-KO; Cellular RAS-RAF disruption G12V / Cellular nano-BRET G12V: scale not given here
From the text: KRAS4B, or other small GTPases, containing the indicated mutations were cloned in pNLF-N or pHTN plasmids for expression with an N-terminal nanoluciferase or HaloTag fusion, respectively. […] The following day, the cells were collected by Trypsin and reseeded in a white tissue culture-treated 96-well plate in OptiMem phenol red-free medium (Gibco) containing 4% FBS and a 1:1,000 dilution of NanoBRET 618 HaloTag ligand (Promega). For endpoint concentration response curves, vivazine nanoluciferase substrate was added to 1× concentration in OptiMem phenol red-free medium with 4% FBS. Varying concentrations of inhibitor were added and incubated for 1 or 4 h before the nano-BRET signal was measured on a Perkin Elmer Envision plate reader. For kinetic assays, endurazine nanoluciferase substrate was used in place of vivazine, and the plate was placed in a Cytation5 multi-mode reader pre-equilibrated to 37 °C and 5% CO2.

KRAS^G12C = KRAS^G12C (Homo sapiens, UniProt P01116+P62937, G12C); assay: Biochemical RAS–RAF (BRAF RBD) disruption, TR-FRET; set-up: His6-TEV (N); made in house; host or cells: BL21(DE3) Escherichia coli
From the text: (§1) Time-resolved fluorescence resonance energy transfer (TR-FRET) was used as previously described to assess disruption of the interactions between wild-type RAS or the mutant oncogenic RAS proteins and the RAS-binding domain of BRAF, and to assess the induction of interactions between the RAS proteins and CYPA[12].

KRAS^G12V [3] = biological target: T1, KRAS^G12V; assay: Biochemical RAS–RAF (BRAF RBD) disruption, TR-FRET; set-up: His6-TEV (N); made in house; host or cells: BL21(DE3) Escherichia coli
From the text: as §1

[4] = system: DUSP6 mRNA in NCI-H441 xenograft tumours; assay: In vivo pharmacodynamic analysis by DUSP6 qPCR in NCI-H441 CDX tumours; set-up: species or system mouse; conditions: for % inhibition of DUSP6 vs control: single dose, tumor, individual animals
Method: RNA extraction and analysis of DUSP6 levels by in tumour tissue were performed as previously described.

CCn1c(-c2cc(N3CCN(C4CC4)CC3)cnc2[C@H](C)OC)c2c3cc(ccc31)-c1csc(n1)C[C@H](NC(=O)[C@H]1[C@@H]3COC[C@@H]31)C(=O)N1CCC[C@H](N1)C(=O)OCC(C)(C)C2 [RMC-7977]
Kd (KRAS^G12R): 0.272 µM
% Tumor Volume Change ([1]; CRC039, RMC-7977 10 mg/kg po qd, day 0 on study, individual animals): 241.9% and 219.3% and 159.4%
% Tumor Volume Change ([1]; CRC039, RMC-7977 10 mg/kg po qd, day 4 on study, individual animals): 220.3% and 125.3% and 145.8%
% Tumor Volume Change ([1]; CRC039, RMC-7977 10 mg/kg po qd, day 7 on study, individual animals): 121.8% and 118.8% and 123%
% Tumor Volume Change ([1]; CRC039, RMC-7977 10 mg/kg po qd, day 11 on study, individual animals): 74.4% and 112.7% and 94.2%
% Tumor Volume Change ([1]; CRC039, RMC-7977 10 mg/kg po qd, day 14 on study, individual animals): 80.2% and 106.6% and 94.1%
% Tumor Volume Change ([1]; CRC039, RMC-7977 10 mg/kg po qd, day 18 on study, individual animals): 81.1%
% Tumor Volume Change ([1]; PDAC G12D, BALB/c nude mice, 10 mg/kg po qd, day 0, individual animals): 153.24% and 151.4%
% Tumor Volume Change ([1]; PDAC G12D, BALB/c nude mice, 10 mg/kg po qd, day 3, individual animals): 209.83% and 173.4%
% Tumor Volume Change ([1]; PDAC G12D, BALB/c nude mice, 10 mg/kg po qd, day 7, individual animals): 163.81% and 154.57%
% Tumor Volume Change ([1]; PDAC G12D, BALB/c nude mice, 10 mg/kg po qd, day 14, individual animals): 89.27% and 198.15%
% Tumor Volume Change ([1]; PDAC G12D, BALB/c nude mice, 10 mg/kg po qd, day 17, individual animals): 109.93% and 119.08%
% Tumor Volume Change ([1]; PDAC G12D, BALB/c nude mice, 10 mg/kg po qd, day 21, individual animals): 193.02% and 99.24%
% Tumor Volume Change ([1]; PDAC G12D, BALB/c nude mice, 10 mg/kg po qd, day 24, individual animals): 160.39% and 128.81%
% Tumor Volume Change ([1]; PDAC G12D, BALB/c nude mice, 10 mg/kg po qd, day 28, individual animals): 162.11% and 110.97%
% Tumor Volume Change ([1]; PSN-1, BALB/c nude mice, 10 mg/kg po qd, day 0, individual animals): 179% and 166%
% Tumor Volume Change ([1]; PSN-1, BALB/c nude mice, 10 mg/kg po qd, day 3, individual animals): 154% and 97%
% Tumor Volume Change ([1]; PSN-1, BALB/c nude mice, 10 mg/kg po qd, day 7, individual animals): 134% and 82%
% Tumor Volume Change ([1]; PSN-1, BALB/c nude mice, 10 mg/kg po qd, day 10, individual animals): 126% and 70%
% Tumor Volume Change ([1]; PSN-1, BALB/c nude mice, 10 mg/kg po qd, day 14, individual animals): 117% and 66%
% Tumor Volume Change ([1]; PSN-1, BALB/c nude mice, 10 mg/kg po qd, day 17, individual animals): 116% and 65%
% Tumor Volume Change ([1]; PSN-1, BALB/c nude mice, 10 mg/kg po qd, day 21, individual animals): 121% and 60%
% Tumor Volume Change ([1]; PSN-1, BALB/c nude mice, 10 mg/kg po qd, day 24, individual animals): 131% and 55%
% Tumor Volume Change ([1]; PSN-1, BALB/c nude mice, 10 mg/kg po qd, day 28, individual animals): 132%
median time to tumour doubling ([1]; treatment up to 90 days, Kaplan–Meier analysis): did not reach a median time to tumour doubling
EC50 (KRAS^G12V [2]; KRAS^G12V, CRAF RBD, nano-BRET, (95% CI)): 0.00766 µM
Cellular RAS-RAF disruption G12V (KRAS^G12V [2]; RMC-7977 0.0254 nM): 100.00
Cellular RAS-RAF disruption G12V (KRAS^G12V [2]; RMC-7977 0.05 nM): 95.09 and 96.3702
Cellular RAS-RAF disruption G12V (KRAS^G12V [2]; RMC-7977 0.08 nM): 99.62
Cellular RAS-RAF disruption G12V (KRAS^G12V [2]; RMC-7977 0.23 nM): 93.81
Cellular RAS-RAF disruption G12V (KRAS^G12V [2]; RMC-7977 0.46 nM): 63.26 and 77.9214
Cellular RAS-RAF disruption G12V (KRAS^G12V [2]; RMC-7977 2.06 nM): 66.75
Cellular RAS-RAF disruption G12V (KRAS^G12V [2]; RMC-7977 4.12 nM): 17.09 and 32.4499
Cellular RAS-RAF disruption G12V (KRAS^G12V [2]; RMC-7977 12.35 nM): 8.26 and 13.953
Cellular RAS-RAF disruption G12V (KRAS^G12V [2]; RMC-7977 18.52 nM): 13.89
Cellular RAS-RAF disruption G12V (KRAS^G12V [2]; RMC-7977 37.04 nM): 4 and 4.5731
Cellular RAS-RAF disruption G12V (KRAS^G12V [2]; RMC-7977 55.56 nM): 3.90
Cellular RAS-RAF disruption G12V (KRAS^G12V [2]; RMC-7977 111.11 nM): 1.99 and 1.6717
Cellular RAS-RAF disruption G12V (KRAS^G12V [2]; RMC-7977 166.67 nM): 0.38
Cellular RAS-RAF disruption G12V (KRAS^G12V [2]; RMC-7977 500.00 nM): 0.05
Cellular nano-BRET G12V (KRAS^G12V [2]; calculated RMC-7977:CYPA complexes 1.95 nM): 99.62
Cellular nano-BRET G12V (KRAS^G12V [2]; calculated RMC-7977:CYPA complexes 34.93 nM): 41.01 and 56.3646
Cellular nano-BRET G12V (KRAS^G12V [2]; calculated RMC-7977:CYPA complexes 52.21 nM): 66.75
Cellular nano-BRET G12V (KRAS^G12V [2]; calculated RMC-7977:CYPA complexes 153.42 nM): 36.46
Cellular nano-BRET G12V (KRAS^G12V [2]; calculated RMC-7977:CYPA complexes 297.71 nM): 8.26 and 13.953
Cellular nano-BRET G12V (KRAS^G12V [2]; calculated RMC-7977:CYPA complexes 433.65 nM): 13.89
Cellular nano-BRET G12V (KRAS^G12V [2]; calculated RMC-7977:CYPA complexes 798.08 nM): 4 and 4.5731
Cellular nano-BRET G12V (KRAS^G12V [2]; calculated RMC-7977:CYPA complexes 1814.88 nM): 1.99 and 1.6717
Cellular nano-BRET G12V (KRAS^G12V [2]; calculated RMC-7977:CYPA complexes 2304.15 nM): 0.38
Cellular nano-BRET G12V (KRAS^G12V [2]; calculated RMC-7977:CYPA complexes 3597.12 nM): 0.05
EC50 (KRAS^G12C): 0.0318 µM
EC50 (KRAS^G12V [3]): 0.044 µM
EC50 ([4]; Mus musculus, NCI-H441, po, read-out: EC50, total tumour concentration versus DUSP6 inhibition): 0.13 µM
EC90 ([4]; Mus musculus, NCI-H441 CDX, single oral administration, read-out: EC90, tumour concentration versus DUSP6 inhibition): 1.45 µM
RMC-7977 10 mg/kg po dusp6 ([4]; NCI-H441 CDX tumour DUSP6 mRNA, single oral 10 mg/kg, 1 h, individual replicates, 10 mg/kg): 34.819 and 101.252 and 98.4831
RMC-7977 25 mg/kg po dusp6 ([4]; NCI-H441 CDX tumour DUSP6 mRNA, single oral 25 mg/kg, 1 h, individual replicates, 25 mg/kg): 26.2056 and 15.6903 and 16.7583
suppression of tumour DUSP6 levels ([4]; NCI-H441 CDX, single oral dose of 10 mg kg^−1, at 8 h): 91%
% inhibition of DUSP6 vs control ([4]; 8h, 1 mg/kg): 63.5% and 36.8% and 52.6%
% inhibition of DUSP6 vs control ([4]; 8h, 5 mg/kg): 53.7% and 91.7% and 1.5%
% inhibition of DUSP6 vs control ([4]; 8h, 10 mg/kg): 95.7% and 96.4% and 96.3% and 93.6937% and 85.7607% and 93.075%
% inhibition of DUSP6 vs control ([4]; 8h, 25 mg/kg): 95.995% and 81.4698% and 87.9011%
% inhibition of DUSP6 vs control ([4]; 24h, 1 mg/kg): 0% and 16.6%
% inhibition of DUSP6 vs control ([4]; 24h, 5 mg/kg): 6.8% and 29.4% and 61.8%
% inhibition of DUSP6 vs control ([4]; 24h, 10 mg/kg): 89.7% and 90.2% and 86.9% and 86.5288% and 67.1731% and 84.3639%
% inhibition of DUSP6 vs control ([4]; 24h, 25 mg/kg): 94.1768% and 94.6786% and 96.3905%
% inhibition of DUSP6 vs control ([4]; 48h, 1 mg/kg): 0% and 32.5%
% inhibition of DUSP6 vs control ([4]; 48h, 5 mg/kg): 3.9% and 33.4% and 22.2%
% inhibition of DUSP6 vs control ([4]; 48h, 10 mg/kg): 72.3% and 74.6% and 69.6% and 56.232% and 64.817% and 89.3572%
% inhibition of DUSP6 vs control ([4]; 48h, 25 mg/kg): 81.914% and 86.388% and 94.0545%
% inhibition of DUSP6 vs control ([4]; 72h, 5 mg/kg): 0% and 11.9%
% inhibition of DUSP6 vs control ([4]; 72h, 10 mg/kg): 0.2% and 45.2% and 48.1% and 87.4744% and 67.1731%
% inhibition of DUSP6 vs control ([4]; 72h, 25 mg/kg): 87.2112% and 72.4915% and 81.7249%
